Experimental data as given in article PMC12925725, “A potent nonapeptide inhibitor for the CXCL12/HMGB1 heterocomplex: A computational and experimental approach” (Computational and Structural Biotechnology Journal, 2025).

Key:
HMGB1-BoxB [1] = molecular target: T1, HMGB1-BoxB (Homo sapiens, UniProt P09429); assay: Microscale thermophoresis (MST) binding to HMGB1-BoxB; settings: 10 nM His-tag RED-tris-NTA labelled protein, PBS-T 0.05 % Tween 20, at least 40 min room temperature, 25 °C
T1 construct: His-tagged HMGB1-BoxB, HMGB1-BoxA, and full length HMGB1 proteins were produced at the Protein Facility; made in house
T1 sequence (P09429 95-163 limits assumed): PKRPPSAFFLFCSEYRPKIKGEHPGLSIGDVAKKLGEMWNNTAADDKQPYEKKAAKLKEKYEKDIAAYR
Method: (§1) His-tagged HMGB1-BoxB, HMGB1-BoxA, and full length HMGB1 proteins were produced at the Protein Facility of the Institute for Research in Biomedicine as previously described, [17], and stored in phosphate-buffered saline (PBS; product No. D8537, Sigma Aldrich, Saint Louis, USA).
(§2) Target proteins were fluorescently-labeled using the specific His-Tag Labeling Kit RED-tris-NTA 2nd Generation of NanoTemper Technologies (Product No. MO-L018), according to manufacturer instructions. A fixed 10 nM concentration of labeled target protein was mixed with sixteen 1:1 serial dilutions of the ligand peptide (see Supplementary Materials, Table S4 for the details about the concentration ranges used for the peptides). Both protein and peptide were dissolved in PBS-T buffer (0.05 % Tween™ 20, NanoTemper Technologies), and incubated for at least 40 min at room temperature. […] Finally, the data were processed by employing the dedicated MO.Affinity Analysis software v2.3 (NanoTemper Technologies GmbH, München, Germany) and the Kd values were determined based on concentration-dependent changes in normalized fluorescence (Fnorm), while the figures were generated using GraphPad Prism software v8.0.2 (GraphPad, Boston, USA). […]

Solubility in PBS buffer = type: physicochemical; settings: compared with HBP08–2
human monocytes = assay: Peptide toxicity on human monocytes (AnnexinV-FITC / propidium iodide, flow cytometry); type: cell-based; settings: 1 μM or 10 μM, 2 or 4 hours
Method: (§3) After incubation, cells were stained using AnnexinV-FITC and propidium iodide following the manufacturer’s instructions, and cell viability was analyzed by ﬂow cytometry in comparison to the untreated control.

[2] = molecular target: T2, CXCL12/HMGB1 heterocomplex (Homo sapiens, UniProt P09429); assay: In vitro chemotaxis of human monocytes in response to the CXCL12/HMGB1 heterocomplex (Boyden chamber); type: cell-based; settings: 1 nM CXCL12 + 300 nM HMGB1, peptide 0.1-10 μM, 90 min, four independent experiments, read-out: IC50, inhibition of monocyte migration in response to the CXCL12/HMGB1 heterocomplex
T2 construct: His-tagged HMGB1-BoxB, HMGB1-BoxA, and full length HMGB1 proteins were produced; His-tag; made in house
T2 sequence (P09429 1-215): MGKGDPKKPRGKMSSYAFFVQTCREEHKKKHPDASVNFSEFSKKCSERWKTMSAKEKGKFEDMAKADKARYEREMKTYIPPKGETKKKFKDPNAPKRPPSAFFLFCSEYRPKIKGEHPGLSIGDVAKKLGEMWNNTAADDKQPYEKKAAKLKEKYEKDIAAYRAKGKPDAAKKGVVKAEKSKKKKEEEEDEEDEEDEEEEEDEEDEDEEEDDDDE
Method: The murine 300.19 PreB cell line, stably transfected with the human CXCR4 [47], was cultured under standard culture conditions (5 % CO2, […], 37 °C) in RPMI-1640, supplemented with 10 % Fetal Bovine Serum, 1x non-essential amino acids, 1 mM Sodium pyruvate, 20 mM GlutaMAX, 50 μM β-Mercaptoethanol, 50 U/mL Penicillin and 50 μg/mL Streptomycin (GIBCO). Human monocytes were freshly isolated from buffy-coats obtained by spontaneous donation from healthy individuals (Central Laboratory of Swiss Red Cross, Basel, Switzerland, and Centro Trasfusionale Lugano, Switzerland, Canton Ticino Ethical Committee approval CE3428), and isolated by positive selection using CD14 microbeads (Miltenyi Biotec), as previously described.
In vitro cell migration of CXCR4 + murine 300.19 PreB cells and of freshly isolated human monocytes was performed using Boyden chambers equipped with 5 μm pore membranes, as previously described. Briefly, cells were diluted at 10^6 cell/mL in RPMI 1640, supplemented with 20 mM Hepes, pH 7.4, and 1 % pasteurized plasma protein solution, and allowed to migrate for 90 min in response to different stimuli under standard conditions (5 % CO2, […], 37 °C). CXCL12 was used at 1 nM, 10 nM or 100 nM. The CXCL12/HMGB1 heterocomplex was formed by combining 1 nM CXCL12 with 300 nM HMGB1.

[3] = system: murine CXCR4 + 300.19 PreB cell line; assay: Peptide toxicity on murine CXCR4+ 300.19 PreB cells (AnnexinV-FITC / propidium iodide, flow cytometry); type: cell-based; settings: 1 μM or 10 μM, 2 or 4 hours
Method: as §3

HMGB1-BoxA [4] = molecular target: T3, HMGB1-BoxA (Homo sapiens, UniProt P09429); assay: Microscale thermophoresis (MST) binding to HMGB1-BoxA; settings: 10 nM labelled protein, PBS-T 0.05 % Tween 20, at least 40 min room temperature, 25 °C
T3 construct: His-tagged HMGB1-BoxB, HMGB1-BoxA, and full length HMGB1 proteins were produced at the Protein Facility; made in house
T3 sequence (P09429 9-79 limits assumed): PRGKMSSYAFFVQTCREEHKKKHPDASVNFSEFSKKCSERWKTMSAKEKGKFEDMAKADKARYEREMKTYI
Method: as §1, §2

HMGB1-BoxA [5] = molecular target: T4, HMGB1-BoxA (RED-tris-NTA dye on the His tag (His-Tag Labeling Kit RED-tris-NTA 2nd Generation) in the MST); assay: MST; 10 nM target protein labelled on its His tag (RED-tris-NTA) mixed with sixteen 1:1 serial dilutions of the peptide; PBS-T (0.05 % Tween 20); incubated at least 40 min at room temperature; 25 °C; Monolith NT.115 Pico, excitation 20 %, MST power 40 %; settings: both partners purified
T4 chain: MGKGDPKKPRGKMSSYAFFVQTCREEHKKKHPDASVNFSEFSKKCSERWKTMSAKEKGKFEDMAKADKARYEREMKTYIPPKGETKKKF

[6] = molecular target: T5, High Mobility Group Box 1 (HMGB1), full length (UniProt P09429 1-215, RED-tris-NTA dye on the His tag (His-Tag Labeling Kit RED-tris-NTA 2nd Generation) in the MST); assay: as above; settings: both partners purified
T5 construct: HMGB1, full length; also called recombinant HMGB1; source: produced at the Protein Facility of the Institute for Research in Biomedicine as previously described
T5 sequence (looked up): T2 sequence (P09429 1-215)

HMGB1-BoxB [7] = assay: as above

Question: With `CC[C@H](C)[C@H](NC(=O)[C@H](Cc1c[nH]c2ccccc12)NC(=O)[C@H](CCSC)NC(=O)[C@H](CCSC)NC(=O)[C@H](Cc1ccc(O)cc1)NC(=O)[C@H](Cc1c[nH]cn1)NC(=O)[C@H](CCCNC(=N)N)NC(=O)[C@@H]1CCCN1)C(=O)N[C@@H](Cc1c[nH]cn1)C(=O)O` [HBP08–3] as the molecule, how does the Kd (HMGB1-BoxB [1]) read?
Answer: 15.3 ± 1.9 nM

Question: And the “solubility in PBS buffer” value (Solubility in PBS buffer)?
Answer: lower solubility

Question: With `CC[C@H](C)[C@H](NC(=O)[C@H](Cc1c[nH]c2ccccc12)NC(=O)[C@H](CCSC)NC(=O)[C@H](CCC(N)=O)NC(=O)[C@H](Cc1ccc(O)cc1)NC(=O)[C@H](Cc1c[nH]cn1)NC(=O)[C@H](CCCNC(=N)N)NC(=O)[C@@H]1CCCN1)C(=O)N[C@@H](Cc1c[nH]cn1)C(=O)O` [HBP08–2] as the molecule, how does the “toxicity on human monocytes” value (human monocytes) read?
Answer: did not exhibit toxicity

Question: And the IC50 [2]?
Answer: 3310 nM

Question: What about the “toxicity on murine CXCR4+ 300.19 PreB cells” value [3] of the same molecule?
Answer: did not exhibit toxicity

Question: And the Kd (HMGB1-BoxA [4])?
Answer: 4200 ± 400 nM

Question: What about the Kd (HMGB1-BoxB [1]) of the same molecule?
Answer: 11.3 ± 2.3 nM

B1: HBP08–2 (peptide)
peptide: PRHYQMWIH
notes: Reconstituted in DMSO; also called G1P + E5Q; source: synthetic peptide, synthetized by Proteogenix (without TFA), purity about 99 %
Question: What does the source list for B1?
Answer: Kd (HMGB1-BoxA [5]): 4200 ± 400 nM; Kd [6]: 28.1 ± 7 nM; Kd (HMGB1-BoxB [7]): 11.3 nM

Question: With PRHYMMWIH [HBP08–3] as the molecule, how does the Kd (HMGB1-BoxB [7]) read?
Answer: 15.3 nM
